These results are taken from ChEMBL document CHEMBL1131237 (J Med Chem, 1998).

Each structure is given as a SMILES string. Where “and” joins values, the source holds several entries; their conditions need not be identical. Equal entries are not always repeated.

Assay [1] addresses T1, Sodium-dependent dopamine transporter (Rattus norvegicus, UniProt P23977). Nature of the assay: Ability to displace [3H]WIN-35428 binding to dopamine transporter from rat striatal membranes.
The target in assay [2] is T1, Sodium-dependent dopamine transporter. Nature of the assay: Inhibition of high-affinity uptake of [3H]dopamine at dopamine transporter into rat striatal nerve endings (synaptosomes). The class given is subcellular, Brain.
In assay [3] the target is Sodium-dependent dopamine transporter (Rattus norvegicus) (UniProt P23977). Nature of the assay: Hill coefficient was determined.
Chain of Sodium-dependent dopamine transporter (Rattus norvegicus) (P23977 whole entry): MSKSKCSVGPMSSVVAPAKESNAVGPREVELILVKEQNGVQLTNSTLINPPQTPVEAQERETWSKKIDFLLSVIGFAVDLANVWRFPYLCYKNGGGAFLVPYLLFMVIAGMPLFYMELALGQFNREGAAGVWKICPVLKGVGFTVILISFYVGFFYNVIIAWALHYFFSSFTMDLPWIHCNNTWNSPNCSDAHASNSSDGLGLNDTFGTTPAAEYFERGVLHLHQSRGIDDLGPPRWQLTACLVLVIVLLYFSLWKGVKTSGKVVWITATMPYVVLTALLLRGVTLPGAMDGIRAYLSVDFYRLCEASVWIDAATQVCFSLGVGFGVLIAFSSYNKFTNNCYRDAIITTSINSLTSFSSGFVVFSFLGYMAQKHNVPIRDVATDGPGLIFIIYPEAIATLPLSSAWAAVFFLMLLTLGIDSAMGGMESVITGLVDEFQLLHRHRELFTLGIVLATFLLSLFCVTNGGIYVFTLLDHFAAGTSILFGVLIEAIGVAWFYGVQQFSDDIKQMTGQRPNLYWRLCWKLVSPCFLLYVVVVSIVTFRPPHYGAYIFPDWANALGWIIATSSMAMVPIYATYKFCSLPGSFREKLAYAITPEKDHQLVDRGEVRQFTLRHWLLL
Assay [4] has the same target.

T1 sequence (P23977 whole entry): as above

For the molecule `COC(=O)[C@H]1CN(C)CC[C@H]1c1ccc(Cl)cc1`, the values for the half-inhibitory concentration (IC50) in assay [1] and in assay [2] were 653 nM and 195 nM, respectively. The Hill coefficient in assay [3] was 0.96 and 1.08.

In the case of `CN1CC[C@@H](c2ccc(Cl)cc2)C(CO)C1` (stereo partly specified), the concentration for half-maximal inhibition (IC50) in assay [1] was found to be 442 nM. In assay [4], this molecule came in with a Hill coefficient of 0.66.

Take `CC(=O)OCC1CN(C)CC[C@H]1c1ccc(Cl)cc1` (stereo partly specified): the IC50 in assay [1] worked out at 928 nM; in assay [2], 2020 nM. In addition, the Hill coefficient in assay [4] is 0.89 and 1.07.

In turn, `COC(=O)C1CN(C)CC[C@@H]1c1ccccc1` (stereo partly specified) had a half-inhibitory concentration (IC50) in assay [1] of 769 nM. The Hill coefficient in assay [3] came out at 1.02.

Consider `CC(=O)OC[C@@H]1CN(C)CC[C@@H]1c1ccc(Cl)cc1`, for which the Hill coefficient in assay [4] was 0.66 and 1.03.

As to `CCC[C@@H]1CN(C)CC[C@@H]1c1ccc(Cl)cc1`, the Hill coefficient in assay [3] was 0.64 and 1.04.

Turning to `COC(=O)[C@@H]1CN(C)CC[C@@H]1c1ccc(Cl)cc1`, the Hill coefficient in assay [4] was 0.78 and 0.94.

With `COC(=O)[C@H]1CN(C)CC[C@@H]1c1ccc(Cl)cc1` (racemic), in assay [1], the half-inhibitory concentration (IC50) came out at 197 nM. Further, the Hill coefficient in assay [4] was 0.91.

As for `COC(=O)[C@@H]1CN(C)CC[C@@H]1c1ccc(Cl)cc1` (racemic), the Hill coefficient in assay [4] is 0.91 and 1.04.

`CC(=O)OCC1CN(C)CC[C@@H]1c1ccc(Cl)cc1` (single isomer, unassigned): the 50% inhibitory concentration (IC50) in assay [1] is 461 nM. Further, the Hill coefficient in assay [4] worked out at 0.76.

For the molecule `CCCC1CN(C)CC[C@@H]1c1ccc(Cl)cc1` (single isomer, unassigned), the figures for the IC50 in assay [1] and in assay [2] were 17.2 nM and 23.2 nM, respectively. Moreover, in assay [3], the Hill coefficient was 0.85 and 1.03.

In assay [2], `COC(=O)C1CN(C)CC[C@H]1c1ccc(Cl)cc1` (single isomer, unassigned) displayed an IC50 of 5090 nM. The Hill coefficient in assay [3] is 0.81 and 0.95.

Take `COC(=O)C1CN(C)CC[C@@H]1c1ccc(Cl)cc1` (single isomer, unassigned): the Hill coefficient in assay [4] was 0.78 and 0.97.

For `COC(=O)[C@H]1[C@@H](OC(=O)c2ccccc2)CC2CC[C@H]1N2C` (single isomer, unassigned), in assay [4], the Hill coefficient was 0.87 and 1.06.

Turning to `CN1CC[C@H](c2ccc(Cl)cc2)C(CO)C1` (single isomer, unassigned; (+)-13) [listing 1 of 2 here], the IC50 in assay [1] worked out at 240 nM; in assay [2], 683 nM.

In the case of `CN1CC[C@H](c2ccc(Cl)cc2)C(CO)C1` (single isomer, unassigned; (+)-13) [listing 2 of 2 here], the Hill coefficient in assay [4] is 0.85 and 1.09.

With `CN1CC[C@H](c2ccc(Cl)cc2)C(CO)C1` (single isomer, unassigned; (-)-5) [listing 1 of 2 here], the half-maximal inhibitory concentration (IC50) amounted to 75.3 nM in assay [1] and 49 nM in assay [2].

On to `CN1CC[C@H](c2ccc(Cl)cc2)C(CO)C1` (single isomer, unassigned; (-)-5) [listing 2 of 2 here], for which the Hill coefficient in assay [4] was 0.56 and 1.04.
